According to patent publication US5631401A, “Inhibitors of protein farnesyltransferase and squalene synthase” (Abbott Laboratories, priority 1995, dated 1997):

Key:
[1] = target: T1, Rat brain protein farnesyltransferase (Rattus norvegicus, UniProt Q02293+Q04631); test: In vitro inhibition of protein farnesyltransferase (biotin-lamin substrate, scintillation proximity assay); format: biochemical; details: for inhibition at 1 µM: 1 μM (footnote *), read-out: % Inhibition at 1 μM (protein farnesyltransferase, values marked *); for inhibition at 10 µM: compared to uninhibited control
T1 construct: The enzyme was purified according to Reiss, Y., et al., Cell, 62: 81-88 (1990), utilizing steps one through three; from tissue; host or cells: rat brain
Method: In vitro inhibition of protein farnesyltransferase may be measured by the following procedure. (Procedures for determination of the inhibition of farnesylation of the oncogene protein Ras are described by Goldstein, et al., J. Biol. Chem., 266: 15575-15578 (1991) and by Singh in U.S. Pat. No. 5,245,061 both of which are incorporated herein by reference.)
Rat brain protein farnesyltransferase activity was measured using the biotin-lamin substrate (which is known to undergo farnesylation in a manner analogous to Ras protein) and radioactive farnesyl diphosphate provided by Amersham Life Science in their commercial scintillation proximity assay kit for the determination of farnesyltransferase. The enzyme was purified according to Reiss, Y., et al., Cell, 62: 81-88 (1990), utilizing steps one through three. The specific activity of the enzyme was approximately 10 nmol substrate farnesylated/mg enzyme/hour. […]

[2] = target: T2, Rat liver microsomal squalene synthase (Rattus norvegicus, UniProt Q02769); test: In vitro inhibition of squalene synthase (rat liver microsomes, 3H-farnesyl diphosphate); format: biochemical; details: for inhibition at 1 µM: compared to controls with no test compound; for inhibition at 10 µM: 10 μM (footnote *), read-out: % Inhibition at 10 μM (squalene synthase, values marked *)
T2 construct: Rat liver microsomes, the source of enzyme, were prepared; from tissue; host or cells: rat liver microsomes
T2 sequence (Q02769 1-416): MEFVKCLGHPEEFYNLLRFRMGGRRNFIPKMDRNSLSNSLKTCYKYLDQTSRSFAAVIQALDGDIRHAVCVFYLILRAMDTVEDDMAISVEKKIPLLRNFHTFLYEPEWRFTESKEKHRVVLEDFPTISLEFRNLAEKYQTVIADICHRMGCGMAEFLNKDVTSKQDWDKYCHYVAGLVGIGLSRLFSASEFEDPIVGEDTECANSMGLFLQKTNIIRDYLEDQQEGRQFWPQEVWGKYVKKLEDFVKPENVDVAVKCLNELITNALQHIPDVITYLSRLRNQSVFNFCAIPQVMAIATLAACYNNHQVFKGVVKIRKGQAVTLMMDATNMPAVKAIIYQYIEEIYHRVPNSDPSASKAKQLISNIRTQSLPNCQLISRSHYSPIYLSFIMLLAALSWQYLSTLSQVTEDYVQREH
Method: In vitro inhibition of squalene synthase may be measured by the following procedure.
Rat liver microsomal squalene synthase activity was measured using radioactive farnesyl diphosphate as a substrate and quantitating squalene synthesis by counting the radioactive squalene formed.
Rat liver microsomes, the source of enzyme, were prepared according to the method of Gillies, P. J., et al., Exp. Molec. Pathol. 44: 329-339 (1986), a modification of the procedure of Erickson, S. K., and Cooper, A. D., Metabolism, 29: 991-996 (1980). Approximately 30 μg of microsomal protein was incubated for 10 minutes at 37° C. with 11 μM of ^3 H-farnesyl diphosphate, 49 mCi/mmol, and test compound in the presence of squalene (2 μL), Mg^++, KF, reduced B-nicotinamide adenine dinucleotide phosphate, dithiothreitol, and K2 PO4, pH 7.35, in a total volume of 200 μL. Oxygen was excluded from the closed incubation tube by degassing with nitrogen. The reaction was terminated by the addition of ethanolic KOH and after degassing with N2, the microsomal membranes were solubilized by heating at 60° C. for 30 minutes. The squalene was extracted into hexane, and the squalene was separated from all other radioactive molecules by passage over an activated alumina column. The solution was collected in scintillation vials, evaporated to dryness, liquid scintillation fluid was added, and the radioactivity was determined in a liquid scintillation counter. […]

| Compound | inhibition at 1 µM [1] | inhibition at 1 µM [2] | inhibition at 10 µM [1] | inhibition at 10 µM [2] |
| --- | --- | --- | --- | --- |
| CCCN(Cc1ccc(Oc2ccccc2)cc1)C(=O)[C@H]1[C@H](C(=O)O)[C@H](C(=O)N(Cc2ccccc2)Cc2ccc(Oc3ccccc3)cc2)[C@H]1C(=O)O (relative stereo) [Example 40, (1α,2β,3β,4α)-1-[N-Propyl-N-(4-phenoxybenzyl)aminocarbonyl]-3-[N-benzyl-N-(4-phenoxybenzyl)aminocarbonyl]cyclobutane-2,4-dicarboxylic acid] | 94% | 49% |  |  |
| O=C(O)[C@H]1[C@H](C(=O)N(Cc2ccccc2)Cc2ccc(Oc3ccccc3)cc2)[C@H](C(=O)O)[C@H]1C(=O)N(Cc1ccccc1)Cc1ccc(Oc2ccccc2)cc1 [Example 16, (1α,2β,3β,4α)-1,3-Di[N-benzyl-N-(4-phenoxybenzyl)aminocarbonyl]cyclobutane-2,4-dicarboxylic acid] |  | 25% | 98% |  |
| O=C(O)[C@H]1[C@H](C(=O)N(Cc2ccc(Oc3ccccc3)cc2)Cc2ccc(Oc3ccccc3)cc2)[C@H](C(=O)O)[C@H]1C(=O)N(Cc1ccc(Oc2ccccc2)cc1)Cc1ccc(Oc2ccccc2)cc1 [Example 20, (1α,2β,3β,4α)-1,3-Di(N,N-di(4-phenoxybenzyl)aminocarbonyl)cyclobutane-2,4-dicarboxylic acid] |  |  |  | 41% |
| CN(c1ccc(-c2ccccc2)cc1)C(=O)[C@H]1[C@H](C(=O)O)[C@H](C(=O)N(C)c2ccc(-c3ccccc3)cc2)[C@H]1C(=O)O [Example 23, (1α,2β,3β,4α)-1,3-Di(N-methyl-N-biphenylaminocarbonyl)cyclobutane-2,4-dicarboxylic acid] |  |  |  | 25% |
| CCCN(Cc1ccc(Cc2ccccc2)cc1)C(=O)[C@H]1[C@H](C(=O)O)[C@H](C(=O)N(CCC)Cc2ccc(Cc3ccccc3)cc2)[C@H]1C(=O)O [Example 26, (1α,2β,3β,4α)-1,3-Di(N-propyl-N-(4-(benzyl)benzyl)aminocarbonyl)cyclobutane-2,4-dicarboxylic acid] |  |  | 69% | 33% |
| CCCCCN(Cc1ccc(Oc2ccccc2)cc1)C(=O)[C@H]1[C@H](C(=O)O)[C@H](C(=O)N(CCCCC)Cc2ccc(Oc3ccccc3)cc2)[C@H]1C(=O)O [Example 29, (1α,2β,3β,4α)-1,3-Di(N-pentyl-N-(4-phenoxybenzyl)aminocarbonyl)cyclobutane-2,4-dicarboxylic acid] |  |  | 38% | 50% |
| O=C(O)[C@H]1[C@H](C(=O)N(Cc2ccc(Oc3ccccc3)cc2)Cc2ccc3oc4ccccc4c3c2)[C@H](C(=O)O)[C@H]1C(=O)N(Cc1ccc(Oc2ccccc2)cc1)Cc1ccc2oc3ccccc3c2c1 [Example 95, (1α,2β,3β,4α)-1,3-Di[N-(dibenzofuran-2-ylmethyl)-N-(4-phenoxybenzyl)aminocarbonyl]cyclobutane-2,4-dicarboxylic acid] |  |  | 55% |  |
| C[C@H](c1cccc2ccccc12)N(Cc1ccc(Oc2ccccc2)cc1)C(=O)[C@H]1[C@H](C(=O)O)[C@H](C(=O)N(Cc2ccc(Oc3ccccc3)cc2)[C@H](C)c2cccc3ccccc23)[C@H]1C(=O)O [Example 96, (1α,2β,3β,4α)-1,3-Di[N-((2R)-2-(1-naphthyl)eth-2-yl) -N-(4-phenoxybenzyl)aminocarbonyl]cyclobutane-2,4-dicarboxylic acid] | 71% |  |  |  |

Other lines, results leading:

| inhibition at 1 µM [1] | inhibition at 1 µM [2] | inhibition at 10 µM [1] | inhibition at 10 µM [2] | Compound |
| --- | --- | --- | --- | --- |
|  | 47% | 34% |  | CN(Cc1ccc(Oc2ccccc2)cc1)C(=O)[C@H]1[C@H](C(=O)O)[C@H](C(=O)N(C)Cc2ccc(Oc3ccccc3)cc2)[C@H]1C(=O)O [Example 14, (1α,2β,3β,4α)-1,3-Di[N-methyl-N-(4-phenoxybenzyl)aminocarbonyl]cyclobutane-2,4-dicarboxylic acid] |
|  |  | 45% | 26% | CN(Cc1ccc(OCc2ccccc2)cc1)C(=O)[C@H]1[C@H](C(=O)O)[C@H](C(=O)N(C)Cc2ccc(OCc3ccccc3)cc2)[C@H]1C(=O)O [Example 15, (1α,2β,3β,4α)-1,3-Di[N-methyl-N-(4-benzyloxybenzyl)aminocarbonyl]cyclobutane-2,4-dicarboxylic acid] |
|  | 52% | 49% |  | CCN(Cc1ccc(Oc2ccccc2)cc1)C(=O)[C@H]1[C@H](C(=O)O)[C@H](C(=O)N(CC)Cc2ccc(Oc3ccccc3)cc2)[C@H]1C(=O)O [Example 17, (1α,2β,3β,4α)-1,3-Di(N-ethyl-N-(4-phenoxybenzyl)aminocarbonyl)cyclobutane-2,4-dicarboxylic acid] |
|  |  | 55% | 89% | CCCN(Cc1ccc(Oc2ccccc2)cc1)C(=O)[C@H]1[C@H](C(=O)O)[C@H](C(=O)N(CCC)Cc2ccc(Oc3ccccc3)cc2)[C@H]1C(=O)O [Example 18, (1α,2β,3β,4α)-1,3-Di(N-propyl-N-(4-phenoxybenzyl)aminocarbonyl)cyclobutane-2,4-dicarboxylic acid] |
|  |  | 80% | 52% | CN(Cc1cccc(Oc2ccccc2)c1)C(=O)[C@H]1[C@H](C(=O)O)[C@H](C(=O)N(C)Cc2cccc(Oc3ccccc3)c2)[C@H]1C(=O)O [Example 19, (1α,2β,3β,4α)-1,3-Di(N-methyl-N-(3-phenoxybenzyl)aminocarbonyl)cyclobutane-2,4-dicarboxylic acid] |
|  |  | 27% | 33% | CN(Cc1ccc(Oc2ccc(F)cc2)cc1)C(=O)[C@H]1[C@H](C(=O)O)[C@H](C(=O)N(C)Cc2ccc(Oc3ccc(F)cc3)cc2)[C@H]1C(=O)O [Example 21, (1α,2β,3β,4α)-1,3-Di(N-methyl-N-(4-(4-fluorophenoxy)benzyl)aminocarbonyl)cyclobutane-2,4-dicarboxylic acid] |
|  |  | 78% | 47% | CN(Cc1cccc(Oc2ccc(F)cc2)c1)C(=O)[C@H]1[C@H](C(=O)O)[C@H](C(=O)N(C)Cc2cccc(Oc3ccc(F)cc3)c2)[C@H]1C(=O)O [Example 22, (1α,2β,3β,4α)-1,3-Di[N-methyl-N-(3-(4-fluorophenoxy)benzyl)aminocarbonyl]cyclobutane-2,4-dicarboxylic acid] |
|  |  | 31% | 85% | CC(C)N(Cc1ccc(Oc2ccccc2)cc1)C(=O)[C@H]1[C@H](C(=O)O)[C@H](C(=O)N(Cc2ccc(Oc3ccccc3)cc2)C(C)C)[C@H]1C(=O)O [Example 24] |
|  | 24% | 59% |  | CC(C)CN(Cc1ccc(Oc2ccccc2)cc1)C(=O)[C@H]1[C@H](C(=O)O)[C@H](C(=O)N(Cc2ccc(Oc3ccccc3)cc2)CC(C)C)[C@H]1C(=O)O [Example 25, (1α,2β,3β,4α)-1,3-Di(N-isobutyl-N-(4-phenoxybenzyl)aminocarbonyl)cyclobutane-2,4-dicarboxylic acid] |
|  | 35% | 69% |  | CCCCN(Cc1ccc(Oc2ccccc2)cc1)C(=O)[C@H]1[C@H](C(=O)O)[C@H](C(=O)N(CCCC)Cc2ccc(Oc3ccccc3)cc2)[C@H]1C(=O)O [Example 27, (1α,2β,3β,4α)-1,3-Di(N-butyl-N-(4-phenoxybenzyl)aminocarbonyl)cyclobutane-2,4-dicarboxylic acid] |
|  |  | 28% | 49% | C#CCN(Cc1ccc(Oc2ccccc2)cc1)C(=O)[C@H]1[C@H](C(=O)O)[C@H](C(=O)N(CC#C)Cc2ccc(Oc3ccccc3)cc2)[C@H]1C(=O)O [Example 28, (1α,2β,3β,4α)-1,3-Di(N-propargyl-N-(4-phenoxybenzyl)aminocarbonyl)cyclobutane-2,4-dicarboxylic acid] |
